Converted amounts (≈) assume the structure as drawn. “And” between values parts separate entries of the source, which are not always exact repeats. Identical values can stand only once.
Assays:
Assay in all cases: ≥ marks a high value that may be exact or a test limit, other limits are often not marked, values filed in µg/mL are converted to µM
[1] = system: Pseudomonas aeruginosa H1001
[2] = system: Bacillus cereus CGMCC 1.932
Acinetobacter baumannii = system: Acinetobacter baumannii
Escherichia coli K99 = system: Escherichia coli K99
[3] = system: Listeria monocytogenes CGMCC 1.1075
[4] = system: Salmonella typhimurium ATCC 7731
Escherichia coli UB1005 = system: Escherichia coli UB1005
[5] = system: Enterococcus faecalis ATCC 29212
Escherichia coli K88 = system: Escherichia coli K88
[6] = system: Staphylococcus aureus ATCC 43300
[7] = system: Bacillus subtilis CMCC 63501
[8] = system: Pseudomonas aeruginosa ATCC 27853
Escherichia coli 078 = system: Escherichia coli 078
[9] = system: Salmonella enterica subsp. enterica serovar Pullorum ATCC 7913
[10] = system: Staphylococcus epidermidis ATCC 12228
[11] = system: Pseudomonas aeruginosa PAO1
[12] = system: Staphylococcus aureus ATCC 25923
[13] = system: Salmonella enterica subsp. enterica serovar Typhimurium ATCC 14028
[14] = system: Salmonella enterica subsp. enterica serovar Typhimurium C77-31
Candida albicans = system: Candida albicans
[15] = system: Staphylococcus aureus ATCC 29213
[16] = system: Candida tropicalis CGMCC 2.1975
[17] = system: Candida albicans CGMCC 2.2086
[18] = system: Salmonella enterica subsp. enterica serovar Choleraesuis CVCC 503
[19] = system: Candida parapsilosis CGMCC 2.3989

Row | Compound | MIC [2] [µM] | MIC (Acinetobacter baumannii) [µM] | MIC (Escherichia coli K99) [µM] | MIC [3] [µM] | MIC [4] [µM] | MIC (Escherichia coli UB1005) [µM] | MIC [5] [µM] | MIC (Escherichia coli K88) [µM] | MIC [6] [µM] | MIC [7] [µM] | MIC [8] [µM] | MIC (Escherichia coli 078) [µM] | MIC [9] [µM] | MIC [10] [µM] | MIC [11] [µM] | MIC [12] [µM] | MIC [13] [µM] | MIC [14] [µM] | MIC [15] [µM] | MIC [16] [µM] | also measured
1 | CC[C@H](C)[C@H](NC(=O)[C@H](CCCN=C(N)N)NC(=O)[C@H](CCCN=C(N)N)NC(=O)[C@@H]1CCCN1C(=O)[C@@H]1CCCN1C(=O)[C@H](CCCN=C(N)N)NC(=O)[C@@H]1CCCN1C(=O)[C@H](CCCN=C(N)N)NC(=O)[C@@H]1CCCN1C(=O)[C@H](CC(C)C)NC(=O)[C@H](Cc1ccc(O)cc1)NC(=O)[C@@H]1CCCN1C(=O)[C@@H]1CCCN1C(=O)[C@H](CCCCN)NC(=O)[C@H](CC(=O)O)NC(=O)[C@@H](N)C(C)C)C(=O)N[C@@H](Cc1ccc(O)cc1)C(=O)N[C@@H](CCCCN)C(=O)N[C@@H](CCCN=C(N)N)C(=O)NCC(=O)O [VDKPPYLPRPRPPRRIYKRG] |  |  |  |  |  |  |  |  |  |  |  |  |  |  |  |  |  |  |  |  | MIC [1]: 0.106 µM (≈ 0.26 µg/mL)
2 | C[C@H](NC(=O)[C@H](CCCN=C(N)N)NC(=O)[C@H](Cc1c[nH]c2ccccc12)NC(=O)[C@H](CCCN=C(N)N)NC(=O)[C@H](Cc1c[nH]c2ccccc12)NC(=O)[C@H](Cc1c[nH]c2ccccc12)NC(=O)[C@H](Cc1c[nH]c2ccccc12)NC(=O)[C@H](CCCN=C(N)N)NC(=O)[C@H](Cc1c[nH]c2ccccc12)NC(=O)[C@@H](N)CCCN=C(N)N)C(N)=O [RWRWWWRWRA] | 16 (≈ 26.3 µg/mL) | 1 (≈ 1.64 µg/mL) | 2 (≈ 3.29 µg/mL) | 1 (≈ 1.64 µg/mL) | 8 (≈ 13.2 µg/mL) | 2 (≈ 3.29 µg/mL) | 4 (≈ 6.58 µg/mL) | 2 (≈ 3.29 µg/mL) | 2 (≈ 3.29 µg/mL) | 2 (≈ 3.29 µg/mL) | 8 (≈ 13.2 µg/mL) | 2 (≈ 3.29 µg/mL) | 8 (≈ 13.2 µg/mL) | 2 (≈ 3.29 µg/mL) | 8 (≈ 13.2 µg/mL) | 4 (≈ 6.58 µg/mL) | 4 (≈ 6.58 µg/mL) |  |  |  | 
3 | C[C@H](NC(=O)[C@H](Cc1c[nH]c2ccccc12)NC(=O)[C@H](Cc1c[nH]c2ccccc12)NC(=O)[C@H](CCCN=C(N)N)NC(=O)[C@H](CCCN=C(N)N)NC(=O)[C@H](Cc1c[nH]c2ccccc12)NC(=O)[C@H](CCCN=C(N)N)NC(=O)[C@H](CCCN=C(N)N)NC(=O)[C@H](Cc1c[nH]c2ccccc12)NC(=O)[C@H](Cc1c[nH]c2ccccc12)NC(=O)CN)C(N)=O [GWWRRWRRWWA] | 2 (≈ 3.4 µg/mL) | 1 (≈ 1.7 µg/mL) | 4 (≈ 6.8 µg/mL) | 2 (≈ 3.4 µg/mL) | 4 (≈ 6.8 µg/mL) | 2 (≈ 3.4 µg/mL) | 4 (≈ 6.8 µg/mL) | 2 (≈ 3.4 µg/mL) | 2 (≈ 3.4 µg/mL) | 0.5 (≈ 0.85 µg/mL) | 4 (≈ 6.8 µg/mL) | 8 (≈ 13.6 µg/mL) | 2 (≈ 3.4 µg/mL) | 2 (≈ 3.4 µg/mL) | 2 (≈ 3.4 µg/mL) | 2 (≈ 3.4 µg/mL) | 4 (≈ 6.8 µg/mL) |  |  |  | 
4 | CC(C)C[C@H](NC(=O)[C@H](CCCCN)NC(=O)[C@H](CCCCN)NC(=O)[C@H](CC(C)C)NC(=O)[C@H](CCCN=C(N)N)NC(=O)[C@H](CS)NC(=O)[C@H](C)NC(=O)[C@H](CC(C)C)NC(=O)[C@H](CCCCN)NC(=O)[C@H](CCCCN)NC(=O)[C@H](CC(C)C)NC(=O)[C@H](CCCN=C(N)N)NC(=O)[C@H](CS)NC(=O)[C@H](C)NC(=O)[C@H](CC(C)C)NC(=O)[C@H](CCCCN)NC(=O)[C@H](CCCCN)NC(=O)[C@@H](N)CC(C)C)C(=O)N[C@@H](C)C(=O)N[C@@H](CS)C(=O)N[C@@H](CCCN=C(N)N)C(N)=O [LKKLACRLKKLACRLKKLACR] |  |  |  |  |  | 2 (≈ 4.91 µg/mL) | 16 (≈ 39.3 µg/mL) |  | 4 (≈ 9.83 µg/mL) |  | 4 (≈ 9.83 µg/mL) |  |  | 16 (≈ 39.3 µg/mL) | 4 (≈ 9.83 µg/mL) | 16 (≈ 39.3 µg/mL) | 4 (≈ 9.83 µg/mL) | 8 (≈ 19.7 µg/mL) | 8 (≈ 19.7 µg/mL) | 1 (≈ 2.46 µg/mL) | MIC (Candida albicans): 4 µM (≈ 9.83 µg/mL); MIC [17]: 8 µM and 16 µM; MIC [18]: 2 µM (≈ 4.91 µg/mL); MIC [19]: 8 µM (≈ 19.7 µg/mL)
5 | CC(C)C[C@H](NC(=O)[C@H](Cc1ccc(O)cc1)NC(=O)[C@@H]1CCCN1C(=O)[C@@H]1CCCN1C(=O)[C@H](CCCCN)NC(=O)[C@H](CC(=O)O)NC(=O)[C@@H](N)C(C)C)C(=O)N1CCC[C@H]1C(=O)N[C@@H](CCCN=C(N)N)C(=O)N1CCC[C@H]1C(=O)N[C@@H](CCCN=C(N)N)C(=O)N1CCC[C@H]1C(=O)N1CCC[C@H]1C(=O)N[C@@H](CCCN=C(N)N)C(=O)N[C@@H](CCCN=C(N)N)C(=O)N[C@@H](CCCCN)C(=O)N[C@@H](Cc1ccc(O)cc1)C(=O)N[C@@H](CC(N)=O)C(=O)N[C@@H](CCCN=C(N)N)C(=O)NCC(=O)O [VDKPPYLPRPRPPRRKYNRG] |  |  |  |  |  |  |  |  |  |  |  |  |  |  |  |  |  |  |  |  | MIC [1]: 0.0487 µM (≈ 0.12 µg/mL)
6 | CC(C)C[C@H](NC(=O)[C@H](CCCN=C(N)N)NC(=O)[C@H](C)NC(=O)[C@H](CS)NC(=O)[C@H](CC(C)C)NC(=O)[C@H](CCCCN)NC(=O)[C@H](CCCCN)NC(=O)[C@H](CC(C)C)NC(=O)[C@H](CCCN=C(N)N)NC(=O)[C@H](C)NC(=O)[C@H](CS)NC(=O)[C@H](CC(C)C)NC(=O)[C@H](CCCCN)NC(=O)[C@H](CCCCN)NC(=O)[C@@H](N)CC(C)C)C(=O)N[C@@H](CCCCN)C(=O)N[C@@H](CCCCN)C(=O)N[C@@H](CC(C)C)C(=O)N[C@@H](CS)C(=O)N[C@@H](C)C(=O)N[C@@H](CCCN=C(N)N)C(N)=O [LKKLCARLKKLCARLKKLCAR] |  |  |  |  |  | 2 (≈ 4.91 µg/mL) | > 64 |  | 32 (≈ 78.6 µg/mL) |  | 16 (≈ 39.3 µg/mL) |  |  | > 64 | 16 (≈ 39.3 µg/mL) | > 64 | 32 (≈ 78.6 µg/mL) | ≥ 64 | > 64 | 2 (≈ 4.91 µg/mL) | MIC (Candida albicans): 5.66 µM (≈ 13.9 µg/mL); MIC [18]: 8 µM (≈ 19.7 µg/mL); MIC [19]: 8 µM (≈ 19.7 µg/mL)
7 | CC[C@H](C)[C@H](NC(=O)[C@H](CCCN=C(N)N)NC(=O)[C@H](C)NC(=O)[C@H](C)N)C(=O)N[C@H](C(=O)N[C@@H](CC(C)C)C(=O)N[C@@H](CCCN=C(N)N)C(=O)N[C@@H](CC(N)=O)C(=O)N[C@@H](CCCN=C(N)N)C(=O)N[C@@H](Cc1ccccc1)C(=O)N[C@@H](CCCN=C(N)N)C(N)=O)[C@@H](C)CC [AARIILRNRFR] |  |  | 16 (≈ 22.2 µg/mL) |  |  | 16 (≈ 22.2 µg/mL) |  | ≥ 32 | > 128 |  | > 128 | 16 (≈ 22.2 µg/mL) | 16 (≈ 22.2 µg/mL) | > 128 |  | > 128 | 32 (≈ 44.3 µg/mL) | ≥ 32 | > 128 | ≥ 128 | MIC [17]: ≥ 128 µM; MIC [19]: ≥ 128 µM
8 | CC(C)C[C@H](NC(=O)[C@H](CCCN=C(N)N)NC(=O)[C@H](Cc1c[nH]c2ccccc12)NC(=O)[C@H](CCCN=C(N)N)NC(=O)[C@H](Cc1c[nH]c2ccccc12)NC(=O)[C@H](Cc1c[nH]c2ccccc12)NC(=O)[C@H](Cc1c[nH]c2ccccc12)NC(=O)[C@H](CCCN=C(N)N)NC(=O)[C@H](Cc1c[nH]c2ccccc12)NC(=O)[C@H](CCCN=C(N)N)NC(=O)CN)C(N)=O [GRWRWWWRWRL] | 8 (≈ 13.9 µg/mL) | 1 (≈ 1.74 µg/mL) | 4 (≈ 6.97 µg/mL) | 2 (≈ 3.49 µg/mL) | 4 (≈ 6.97 µg/mL) | 2 (≈ 3.49 µg/mL) | > 32 | 2 (≈ 3.49 µg/mL) | 2 (≈ 3.49 µg/mL) | 4 (≈ 6.97 µg/mL) | 4 (≈ 6.97 µg/mL) | 2 (≈ 3.49 µg/mL) | 2 (≈ 3.49 µg/mL) | 2 (≈ 3.49 µg/mL) | 4 (≈ 6.97 µg/mL) | 2 (≈ 3.49 µg/mL) | 4 (≈ 6.97 µg/mL) |  |  |  | 
